Legend:
[1] = molecular target: T1, Avi-KRAS G12D (1-169) GppNHp/RAF1 RBD-3×FLAG (52-151) (Homo sapiens, UniProt P01116, G12D); assay: Disrupting RAS-effector binding HTRF assay, Raf1 RBD-KRAS G12D-GppNHp; settings: PPI HTRF, 50 nM Avi-KRAS G12D GppNHp, compound titration 30-0.0045 μM; read-out: Raf1 RBD-KRAS G12D-GppNHp disruption
T1 construct: 50 nM Avi-KRAS G12D (1-169) GppNHp/RAF1 RBD-3×FLAG (52-151)
Protocol: (§1) A protein:protein interaction (PPI) Homogeneous Time Resolved Fluorescence (HTRF) assay was used to determine the effectiveness of compounds of the present disclosure in disrupting KRAS protein and effector RAF1 binding.
(§2) The HTRF assay used the following reagents and proteins: (i) 50 nM Avi-KRAS G12D (1-169) GppNHp/RAF1 RBD-3×FLAG (52-151); (ii) 50 nM Avi-KRAS G12R (1-169) GppNHp/RAF1 RBD-3×FLAG (52-151); (iii) 50 nM Avi-KRAS G12V (1-169) GppNHp/RAF1 RBD-3×FLAG (52-151), (iv) 50 nM Avi-KRAS WT (1-169) GppNHp/RAF1 RBD-3×FLAG (52-151); and (v) 75 nM Avi-RAF1 RBD-3×FLAG. The assay buffer included: 50 mM Tris pH 7.5, 100 mM NaCl, 5 mM MgCl2, 0.1% BSA, […], 10% DMSO. The bead buffer included: 50 mM Tris pH 7.5, 0.01% o Tween 20. Assay volume of 20 μL was used in a 384 well plate-low volume format. Compound titration: 30-0.0045 μM, 3× dilution series.
(§3) The HTRF assay employed the following protocol:
(§4) Compounds were dispensed in assay plate (384-well, Grenier Bione #784075) using Echo (model 555) with dose response settings: 200 nL final volume, titration from 30 μM as a 10-point dilution series. Protein mix was prepared in assay buffer, and dispensed on plates, 10 μL per well, then incubated for 1 h at room temperature, with 700 rpm shaking. Reagents mix was prepared and dispensed on plates, 10 μL per well, then incubated for 1 h at room temperature, with 700 rpm shaking.
(§5) Plates were analyzed on an Envision plate reader using the following setting: Excitation 320 nm, Bandwidth 75 nM; Emission 615 nm, Bandwidth 85 nM, Gain 100%, Flashes 100, Lag 60 μs. Data were reported as percentage of activity, with DMSO as 100%. Data were plotted and analyzed using Prism 8.
(§6) The biochemical Raf1-KRAS G12D/G12R/G12V/WT-GppNHP disruption assay IC50 of selected compounds described herein are shown in Table 4.

[2] = molecular target: T2, Avi-KRAS G12V (1-169) GppNHp/RAF1 RBD-3×FLAG (52-151) (Homo sapiens, UniProt P01116, G12V); assay: Disrupting RAS-effector binding HTRF assay, Raf1 RBD-KRAS G12V-GppNHp; settings: PPI HTRF, 50 nM Avi-KRAS G12V GppNHp, compound titration 30-0.0045 μM; read-out: Raf1 RBD-KRAS G12V-GppNHp disruption
T2 construct: 50 nM Avi-KRAS G12V (1-169) GppNHp/RAF1 RBD-3×FLAG (52-151)
T2 sequence (P01116 1-169 isoform P01116-2 G12V limits assumed): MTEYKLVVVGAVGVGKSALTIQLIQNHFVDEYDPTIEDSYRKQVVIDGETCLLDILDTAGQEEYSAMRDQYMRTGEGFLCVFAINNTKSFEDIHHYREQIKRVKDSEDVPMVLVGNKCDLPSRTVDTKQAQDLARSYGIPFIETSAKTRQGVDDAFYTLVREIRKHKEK
Protocol: as §1, §2, §3, §4, §5, §6

[3] = molecular target: T3, Avi-KRAS G12R (1-169) GppNHp/RAF1 RBD-3×FLAG (52-151) (Homo sapiens, UniProt P01116, G12R); assay: Disrupting RAS-effector binding HTRF assay, Raf1 RBD-KRAS G12R-GppNHp; settings: PPI HTRF, 50 nM Avi-KRAS G12R GppNHp, compound titration 30-0.0045 μM; read-out: Raf1 RBD-KRAS G12R-GppNHp disruption
T3 construct: 50 nM Avi-KRAS G12R (1-169) GppNHp/RAF1 RBD-3×FLAG (52-151)
T3 sequence (P01116 1-169 isoform P01116-2 G12R limits assumed): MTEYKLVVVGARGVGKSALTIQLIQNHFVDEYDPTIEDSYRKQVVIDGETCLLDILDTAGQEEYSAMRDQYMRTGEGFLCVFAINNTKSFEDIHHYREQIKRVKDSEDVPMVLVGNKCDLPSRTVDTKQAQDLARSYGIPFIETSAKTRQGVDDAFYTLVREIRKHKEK
Protocol: as §1, §2, §3, §4, §5, §6

[4] = molecular target: T4, Avi-KRAS WT (1-169) GppNHp/RAF1 RBD-3×FLAG (52-151) (Homo sapiens, UniProt P01116); assay: Disrupting RAS-effector binding HTRF assay, Raf1 RBD-KRAS WT-GppNHp; settings: PPI HTRF, 50 nM Avi-KRAS WT GppNHp, compound titration 30-0.0045 μM; read-out: Raf1 RBD-KRAS WT-GppNHp disruption
T4 construct: 50 nM Avi-KRAS WT (1-169) GppNHp/RAF1 RBD-3×FLAG (52-151)
T4 sequence (P01116 1-169 isoform P01116-2 limits assumed): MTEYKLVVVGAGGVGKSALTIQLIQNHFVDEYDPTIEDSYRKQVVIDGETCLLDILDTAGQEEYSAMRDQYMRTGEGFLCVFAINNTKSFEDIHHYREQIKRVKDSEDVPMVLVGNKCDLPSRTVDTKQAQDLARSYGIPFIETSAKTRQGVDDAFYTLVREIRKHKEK
Protocol: as §1, §2, §3, §4, §5, §6

[5] = test system: KRAS G12D protein/effector signaling in GP2d cells; assay: Cell-based pERK HTRF assay in GP2d cell; settings: 60 min incubation
Protocol: A pERK assay (Perkin Elmer) was used to determine the effectiveness of compounds in disrupting KRAS G12D protein/effector signaling in cells.
On Day 1, cells (GP2d) were seeded into 96-well plates at 3×10^4 cells/well in 80 μL complete growth media (DMEM, 10% FBS).
On Day 2, cells were treated with compounds at 0.25% DMSO. The source plate was created with compounds diluted in media at 5-fold the final assay concentration. The compounds were run in a 9-point concentration curve starting at […], with a half-log dilution between concentrations. 20 μL was transferred onto the cell plates (final volume in wells was 100 μL). Plates were harvested after 60 min incubation by aspirating media and adding kit-supplied 1× supplemented lysis buffer to all wells (50 μL per well). Plates were then placed on a plate shaker and incubated at 850 rpm for an additional 30 min.
Antibody mixture solution was prepared by diluting aliquoted d2 and Eu Cryptate antibodies 1:20 in kit supplied detection buffer, and mixing the diluted antibodies solutions (1:1 v:v). 4 μL of this solution was then added to a 384-well detection plate (Perkin Elmer; 6008230).
Samples were homogenized by pipetting up and down and then transferred (16 μL of cell lysates) from the 96-well cell culture plate to two wells of the HTRF 384-well detection plate containing the antibody solution. Plates were centrifuged (524 g for 1 min) and allowed to incubate between 4 and 24 h at room temperature. Maximum signal was reached after 4 h incubation time and remained stable over a period of 24 hours. Therefore, readings could be made between 4 and 24 h of incubation. Plates were centrifuged again (524 g for 1 min), then analyzed on the EnVision plate reader using the following settings: Excitation 320 nm, Bandwidth 75 nm; Emission 615 nm, Bandwidth 85 nm; Gain 100%; Flashes 100; Lag 60 μs.

T1 sequence (P01116 1-169 isoform P01116-2 G12D limits assumed): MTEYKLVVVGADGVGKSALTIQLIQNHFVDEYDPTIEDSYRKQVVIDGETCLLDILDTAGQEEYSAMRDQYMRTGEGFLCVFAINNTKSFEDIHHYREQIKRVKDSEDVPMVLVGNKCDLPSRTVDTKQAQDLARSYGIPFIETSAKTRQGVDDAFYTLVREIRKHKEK

SMILES | IC50 [1] | IC50 [2] | IC50 [3] | IC50 [4] | IC50 ([5]; 1 h) | IC50 [5]
N#Cc1c(N)sc2c(F)ccc(-c3c(C(F)(F)F)cc4c(N5CC6CCC(C5)N6)nc(N5CC[C@H](O)C5)nc4c3F)c12 [Compound 4] | 1 to 10 µM | > 10 µM | > 10 µM | 1 to 10 µM | 0.1 to 1 µM | –
N#Cc1c(N)sc2c(F)ccc(-c3c(C(F)(F)F)cc4c(N5CC6CCC(C5)N6)nc(N5CCCC5)nc4c3F)c12 [Compound 20] | 1 to 10 µM | > 10 µM | > 10 µM | 1 to 10 µM | 0.1 to 1 µM | –
CC(C)Oc1nc(N2CC3CCC(C2)N3)c2cc(C(F)(F)F)c(-c3ccc(F)c4sc(N)c(C#N)c34)c(F)c2n1 [Compound 8] | 1 to 10 µM | > 10 µM | > 10 µM | 1 to 10 µM | 0.1 to 1 µM | –
CCCOc1nc(N2CC3CCC(C2)N3)c2cc(C(F)(F)F)c(-c3ccc(F)c4sc(N)c(C#N)c34)c(F)c2n1 [Compound 3] | 1 to 10 µM | > 10 µM | > 10 µM | 1 to 10 µM | 0.1 to 1 µM | –
Cc1nc(N2C[C@H]3CC[C@@H](C2)N3)c2cc(C(F)(F)F)c(-c3ccc(F)c4sc(N)c(C#N)c34)c(F)c2n1 [Compound 22, 4-(4-((1R,5S)-3,8-diazabicyclo[3.2.1]octan-3-yl)-8-fluoro-2-methyl-6-(trifluoromethyl)quinazolin-7-yl)-2-amino-7-fluorobenzo[b]thiophene-3-carbonitrile] | 1 to 10 µM | > 10 µM | > 10 µM | 1 to 10 µM | ≤ 0.1 µM | –
N#Cc1c(N)sc2c(F)ccc(-c3c(C(F)(F)F)cc4c(N5CC6CCC(C5)N6)nc(N5CC[C@@H](O)C5)nc4c3F)c12 [Compound 6] | 1 to 10 µM | > 10 µM | > 10 µM | 1 to 10 µM | 0.1 to 1 µM | –
C[C@@H]1CN(c2ncnc3c(F)c(-c4ccc(F)c5sc(N)c(C#N)c45)c(C(F)(F)F)cc23)[C@@H](C)CN1 [Compound 64] | 1 to 10 µM | > 10 µM | > 10 µM | > 10 µM | ≤ 0.1 µM | –
COCCOc1nc(N2CC3CCC(C2)N3)c2cc(C(F)(F)F)c(-c3ccc(F)c4sc(N)c(C#N)c34)c(F)c2n1 [Compound 15] | 1 to 10 µM | > 10 µM | > 10 µM | 1 to 10 µM | ≤ 0.1 µM | –
N#Cc1c(N)sc2c(F)ccc(-c3c(C(F)(F)F)cc4c(N5CC6CCC(C5)N6)nc(N5CC(O)C5)nc4c3F)c12 [Compound 16] | 1 to 10 µM | > 10 µM | > 10 µM | 1 to 10 µM | 0.1 to 1 µM | –
N#Cc1c(N)sc2c(F)ccc(-c3c(C(F)(F)F)cc4c(N5CC6CCC(C5)N6)nc(OC[C@@H]5CC(=O)N5)nc4c3F)c12 [Compound 39] | 1 to 10 µM | > 10 µM | > 10 µM | 1 to 10 µM | 0.1 to 1 µM | –
CN(C(=O)c1cnn(C)c1)c1nc(N2CC3CCC(C2)N3)c2cc(C(F)(F)F)c(-c3ccc(F)c4sc(N)c(C#N)c34)c(F)c2n1 [Compound 27] | > 10 µM | > 10 µM | > 10 µM | 1 to 10 µM | 0.1 to 1 µM | –
COc1nc(N2C[C@@H](C)NC[C@@H]2C)c2cc(C(F)(F)F)c(-c3ccc(F)c4sc(N)c(C#N)c34)c(F)c2n1 [Compound 60] | > 10 µM | > 10 µM | > 10 µM | > 10 µM | > 1 µM | –
N#Cc1c(N)sc2c(F)ccc(-c3c(C(F)(F)F)cc4c(N5CC6CCC(C5)N6)nc(N5CCNC(=O)CC5)nc4c3F)c12 [Compound 25] | 1 to 10 µM | > 10 µM | > 10 µM | 1 to 10 µM | 0.1 to 1 µM | –
CNc1nc(N2CC3CCC(C2)N3)c2cc(C(F)(F)F)c(-c3ccc(F)c4sc(N)c(C#N)c34)c(F)c2n1 [Compound 9] | 1 to 10 µM | > 10 µM | > 10 µM | 1 to 10 µM | 0.1 to 1 µM | –
N#Cc1c(N)sc2c(F)ccc(-c3c(C(F)(F)F)cc4c(N5CC6CCC(C5)N6)nc(N5CCC5)nc4c3F)c12 [Compound 14] | 1 to 10 µM | > 10 µM | > 10 µM | 1 to 10 µM | 0.1 to 1 µM | –
N#Cc1c(N)sc2c(F)ccc(-c3c(C(F)(F)F)cc4c(N5CC6CCC(C5)N6)nc(OCC5CCCCC5)nc4c3F)c12 [Compound 2] | > 10 µM | > 10 µM | > 10 µM | > 10 µM | – | –
N#Cc1c(N)sc2c(F)ccc(-c3c(C(F)(F)F)cc4c(N5CC6CCC(C5)N6)nc(OCC5(CO)CC5)nc4c3F)c12 [Compound 18] | 0.1 to 1 µM | 1 to 10 µM | 1 to 10 µM | 1 to 10 µM | ≤ 0.1 µM | –
N#Cc1c(N)sc2c(F)ccc(-c3c(C(F)(F)F)cc4c(N5CC6CCC(C5)N6)nc(OC5CC(O)C5)nc4c3F)c12 (stereo not shown) [Compound 12] | 1 to 10 µM | > 10 µM | > 10 µM | 1 to 10 µM | – | 0.1 to 1 µM
COc1nc(N2CC3CCC(C2)N3)c2cc(C(F)(F)F)c(-c3ccc(F)c4sc(N)c(C#N)c34)c(F)c2n1 [Compound 1] | 1 to 10 µM | > 10 µM | > 10 µM | 1 to 10 µM | ≤ 0.1 µM | –
N#Cc1c(N)sc2c(F)ccc(-c3c(C(F)(F)F)cc4c(N5CC6CCC(C5)N6)nc(N5CCNS(=O)(=O)CC5)nc4c3F)c12 [Compound 26] | 1 to 10 µM | > 10 µM | > 10 µM | 1 to 10 µM | 0.1 to 1 µM | –
N#Cc1c(N)sc2c(F)ccc(-c3c(C(F)(F)F)cc4c(N5CC6CCC(C5)N6)nc(OCC5(O)CC5)nc4c3F)c12 [Compound 7] | 1 to 10 µM | > 10 µM | > 10 µM | > 10 µM | 0.1 to 1 µM | –
N#Cc1c(N)sc2c(F)ccc(-c3c(C(F)(F)F)cc4c(N5CC6CCC(C5)N6)nc(OC5CCC5)nc4c3F)c12 [Compound 17] | 1 to 10 µM | > 10 µM | > 10 µM | 1 to 10 µM | 0.1 to 1 µM | –

Source: patent US20260035376A1, “COMPOSITIONS AND METHODS FOR INHIBITION OF RAS” (TheRas, Inc., priority 2022, published 2026)
